Reference: patent publication US9586896B2, “Nitroxyl donors with improved therapeutic index” (Cardioxyl Pharmaceuticals, Inc., priority 2013, dated 2017)

Legend:
[1] = In vitro stability (half-life) in PBS pH 7.4; assay type: physicochemical; details: pH 7.4, aerated PBS pH 7.4, 37° C., read-out: T1/2 (minutes) PBS
Experimental: (§1) Compound (1), compound (2), and CXL-1020 were tested for their stability in plasma. The assay system comprised (i) PBS, or plasma from rat, dog or human (at least 3 donors, male, pooled) at pH 7.4, and (ii) for tests conducted in plasma, an anticoagulant (sodium heparin or sodium citrate). Each test compound (5 μM) was incubated in PBS or plasma at 37° C. on a THERMOMIXER® with shaking Three samples (n=3) were taken at each of seven sampling time points: 0, 10, 30, 60, 90, 180 and 360 minutes. The samples were immediately combined with 3 volumes (i.e., 3 times the volume of PBS or plasma) of acetonitrile containing 1% formic acid and an internal standard to terminate the reaction. AB SCIEX API 3000 LC-MS/MS analysis of the test compounds was performed without a standard curve. Half-lives (T1/2) of the test compounds were determined from graphs of the percent remaining values using the peak area response ratio.

[2] = In vitro stability (half-life) in rat plasma; assay type: in vitro ADME; details: male, rat plasma pH 7.4, anticoagulant, 37° C., read-out: T1/2 (minutes) Rat
Experimental: as §1

[3] = In vitro stability (half-life) in dog plasma; assay type: in vitro ADME; details: male, dog plasma pH 7.4, anticoagulant, 37° C., read-out: T1/2 (minutes) Dog
Experimental: as §1

[4] = tested on: heart failure canines (tachycardia-pacing model); test: Hemodynamic efficacy in heart failure canines (tachycardia-pacing model); assay type: in vivo, beagle dogs; details: for hemodynamic activity relative to CXL-1020: both normal and failing canine models; for hemodynamic effects produced: normal and failing canine models, FIGS. 1-2
Experimental: The cardiovascular effects of nitroxyl donors were examined by means of pressure-volume (PV) curve (loops) analysis in conscious, sling-restrained beagle dogs. Animals were allowed free access to drinking water and a commercial canine diet under standard laboratory conditions. Fluorescent lighting was provided via an automatic timer for approximately 12 hours per day. On occasion, the dark cycle was interrupted intermittently due to study-related activities. Temperature and humidity were monitored and recorded daily and maintained to the maximum extent possible between 64° F. and 84° F. and 30% to 70%, respectively. The dogs were acclimated for a period of at least 1 week prior to surgery. Following surgery and recovery the animals were acclimated to sling restraint for a period up to 4.5 hours. Animals were fasted overnight prior to surgery.
Once a stable (surgical) plane of anesthesia had been established, a left-thoracotomy was performed (under strict aseptic conditions) and each animal was chronically instrumented with sono-micrometry crystals providing left-ventricular (LV) dimensions/volume. Additionally, a fluid-filled catheter and a solid-state monometer were placed in the left ventricle for pressure monitoring. A fluid-filled catheter was placed in the right ventricle (RV) and the aorta (Ao) for pressure monitoring/test article administration. […] The catheters/wires were aseptically tunneled and externalized between the scapulae. Over the course of the study, fluid-filled catheters were regularly (at least once weekly) flushed with a locking-solution in order to prevent both clotting and bacterial growth (2-3 mL of Taurolidine-Citrate solution, TCS-04; Access Technologies).
Following the cardiovascular instrumentation, the right jugular vein was carefully exposed and cannulated with a bipolar pacing lead/catheter (CAPSUREFIX® Novus; Medtronic). Under fluoroscopic guidance, this pacing lead was advanced normograde into the right ventricle and actively affixed (screwed in) to the apical endocardium. The proximal end of the lead was secured to the pacing device (Kappa 900; Medtronic). Subsequently, the pacemaker was placed/secured in a subcutaneous pocket in the neck.
Following a recovery from surgery and/or sufficient washout period from dosing with a nitroxyl donor, animals were subjected to a 3-week overdrive pacing (210 ppm) protocol aimed to trigger left-ventricular dysfunction/remodeling consistent with the heart failure syndrome. In short, via the implanted pacemaker/right-ventricular lead, the ventricle(s) was asynchronously and continuously paced at 210 beats per minute (bpm). Left-ventricular remodeling (and heart failure induction) were confirmed by both echocardiographic (e.g., ejection fraction (EF)) decrease from about 60% to a target of about 35%, left ventricular (LV) dilatation) and neuro-humoral (e.g., N-terminal pro-brain natriuretic peptide (NT proBNP) elevation to greater than 1800 pM/L from a baseline of about 300 pM/L) changes after approximately 3 weeks of pacing. Echocardiographs and blood samples were collected in the absence of pacing (for at least 15 min).
The animals (normal or heart failure) were studied during treatment with both vehicle (control) and a nitroxyl donor (either CXL-1020, a compound of formula (1) or a compound of formula (2)). At each dosing period, conscious sling-restrained animals were continuously monitored for up to two to three hours. Following hemodynamic stabilization, infusion of the vehicle was started. […] Infusion of the vehicle was continued and after 30 min another (baseline) set of hemodynamic data was collected. Following collection of baseline hemodynamic data, infusion of the nitroxyl donor compound being tested was initiated and derived hemodynamic/functional parameters were obtained/performed at up to four (4) time points selected from the following: at 30, 60, 90, 120, and 180 minutes after the onset of vehicle/test compound infusion. […]

[5] = heart failure canines, i.v. infusion, dose rate 75 (μmol/kg/min [sic])

| Structure (SMILES) | half-life at 5 μM [1] [min] | half-life at 5 μM [2] [min] | half-life at 5 μM [3] [min] | hemodynamic activity relative to CXL-1020 [4] | hemodynamic effects produced [4] | HR (% Change from Baseline) ([4]; heart failure canines, i.v. infusion, dose rate 100 (μmol/kg/min [sic])) [%] | EDV (% Change from Baseline) [4, 5] [%] | ESP (% Change from Baseline) [4, 5] [%] | ESPVR (% Change from Baseline) [4, 5] [%] | HR (% Change from Baseline) [4, 5] [%] | PRSW (% Change from Baseline) [4, 5] [%] | SW (% Change from Baseline) [4, 5] [%] | Tau (% Change from Baseline) [4, 5] [%] |
| --- | --- | --- | --- | --- | --- | --- | --- | --- | --- | --- | --- | --- | --- |
| CS(=O)(=O)c1cccc(S(=O)(=O)NO)c1 [(2), N-Hydroxy-3-methanesulfonylbenzene-1-sulfonamide] | ~50 | 20 | 33 | comparable hemodynamic activity to CXL-1020 | significant enhancement of inotropy and lusitropy, and modest reductions in blood pressure |  |  |  |  |  |  |  |  |
| CS(=O)(=O)c1ccccc1S(=O)(=O)NO [CXL-1020, N-hydroxy-2-methanesulfonylbenzene-1-sulfonamide] | 2 |  |  |  |  | −0.23 ± 2.25 |  |  |  |  |  |  |  |
| Cc1ccc(S(=O)(=O)NO)o1 [Compound (1), N-Hydroxy-5-methylfuran-2-sulfonamide] | ~68 | 40 | 25 | comparable hemodynamic activity to CXL-1020 | significant enhancement of inotropy and lusitropy, and modest reductions in blood pressure |  | −9 ± 2 | −17 ± 1 | 29 ± 1 | −6 ± 2 | 22 ± 1 | −9 ± 2 | −16 ± 4 |
